{"source": "patent US20220288034A1", "about": "“METHOD OF REDUCING ABERRANT IMMUNE RESPONSE OR RISK OF PROGRESSION IN COVID-19” (CELLTAXIS, LLC, priority 2021, published 2022)", "molecular_target": "T1, LTA4H (Homo sapiens, UniProt P09960)", "T1 sequence (P09960 1-611)": "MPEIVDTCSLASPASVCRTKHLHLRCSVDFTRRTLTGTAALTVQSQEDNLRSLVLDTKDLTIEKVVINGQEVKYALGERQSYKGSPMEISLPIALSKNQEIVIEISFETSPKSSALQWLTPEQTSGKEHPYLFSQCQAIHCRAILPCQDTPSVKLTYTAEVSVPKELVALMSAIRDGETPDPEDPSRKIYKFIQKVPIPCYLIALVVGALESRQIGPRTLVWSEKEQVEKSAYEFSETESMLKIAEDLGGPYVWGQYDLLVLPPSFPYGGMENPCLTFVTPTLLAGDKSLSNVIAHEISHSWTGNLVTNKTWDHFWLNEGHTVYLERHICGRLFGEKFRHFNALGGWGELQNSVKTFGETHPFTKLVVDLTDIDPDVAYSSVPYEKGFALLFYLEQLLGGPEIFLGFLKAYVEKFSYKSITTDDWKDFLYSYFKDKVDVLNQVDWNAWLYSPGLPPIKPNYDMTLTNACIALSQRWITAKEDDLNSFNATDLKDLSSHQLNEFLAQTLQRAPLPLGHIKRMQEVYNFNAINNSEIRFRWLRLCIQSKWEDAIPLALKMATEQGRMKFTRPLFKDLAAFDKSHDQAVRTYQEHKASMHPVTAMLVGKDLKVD", "test": "In vitro inhibition of epoxide hydrolase enzymatic activity of LTA4H (LTB4 production)", "format": "biochemical"}
{"compound": "O=C(O)c1ccc(CN2C[C@@H]3C[C@H]2CN3Cc2ccc(Oc3ccc(-c4ncco4)cc3)cc2)cc1", "note": "[acebilustat, 4-{[(1 S,4S)-5-({4-[4-oxazol-2-yl-phenoxy]phenyl}methyl)-2,5-diazabicyclo[2.2.1]heptan-2-yl]methyl}benzoic acid]", "values": [{"measurement": "IC50", "result": 0.0131, "unit": "µM"}]}
